This note sets out measurements from patent US20070155661A1, “Methods and compositions for modulating the development of stem cells” (THE BOARD of TRUSTEES of the LELAND STANDORD JUNIOR …, priority 2003, published 2007).

The assay has as its system mouse ES cell-derived IPCCs. Briefly: Insulin production by mouse ES cell-derived insulin-producing cell clusters (IPCCs). It counts as cell-based. Here is the method: In duplicate experiments, we detect approximately 6000 ng insulin/mg protein produced by mouse embryoid bodies treated with a sequence of growth factors including GDF8.

As for “GDF8: BMP/TGF-beta family growth factor, ~80% identical to GDF11 in the mature region”, under “mouse ES cell-derived IPCCs”, the “effect on insulin production” value is given as “promotes insulin production”. Moreover, where the note is “mouse embryoid bodies treated with a sequence of growth factors including GDF8, duplicate experiments”, the “insulin produced by mouse embryoid bodies” value is listed as “approximately 6000 ng insulin/mg protein”.
